From patent publication US20200129561A1, “DELIVERY OF AUTOLOGOUS CELLS COMPRISING MATRIX METALLOPROTEINASE FOR TREATMENT OF SCLERODERMA” (Intrexon Corporation, priority 2017, published 2020)

Experiment: Nonclinical studies of veledimex control of target protein expression: tissue level of veledimex
Assay type: in vivo
Conditions: oral administration; other target proteins
From the text: MMP-1 expression levels were undetected after 10 days post-injection.

CCC[C@@H](N(NC(=O)c1cccc(OC)c1CC)C(=O)c1cc(C)cc(C)c1)C(C)(C)C [veledimex, 3,5-dimethyl-benzoic acid (R)—N-(1-tert-butyl-butyl)-N′-(2-ethyl-3-methoxy-benzoyl)-hydrazide]
levels of veledimex in the tissue at which maximal expression of target protein can be achieved: approximately 250 ng/mL
